Data set [1] has as its system bovine gamma globulin (BGG). The data set can be described thus: Normalized viscosity of BGG with caffeine and a secondary excipient (Example 40). The class given is physicochemical. To be noted: BGG about 280 mg/mL, 20 mM histidine pH 6, 25° C.
Data set [2] concerns omalizumab. The data set can be described thus: Freeze-thaw stability, light scattering at 350 nm (Example 48). In kind it is physicochemical. To be noted: excipient 5 mg/mL, omalizumab 5 mg/mL, 20 mM histidine pH 6.0, at least 5 freeze (−80° C.)/thaw cycles.
Data set [3] has as its system omalizumab. The data set can be described thus: DLS viscosity of concentrated omalizumab (Example 53). Particulars: concentrated omalizumab 9 parts : 1 part excipient stock (1 M or solubility limit), 20 mM HisHCl pH 6. In kind it is physicochemical. Here is the method: O-(octylphosphoryl)choline was purchased from Sigma Aldrich (St. […] O-(octylphosphoryl)choline was used as a stock excipient without additional preparation. […] In this example, the ratio of apparent radius to the actual radius of the gold nanoparticle was multiplied by the viscosity of water at 25° C. to calculate the viscosity of the protein formulation in centipoise (cP).

Data set [4] has as its system omalizumab. Nature of the data set: DLS viscosity of concentrated omalizumab (Example 54). The class given is physicochemical. To be noted: concentrated omalizumab 9 parts : 1 part excipient stock (1 M or solubility limit), 20 mM HisHCl pH 6. As to the method: Hordenine HCl was purchased from Bulk Supplements (Henderson, NV).
The concentrated protein formulation was then combined with a stock excipient solution or a control at a ratio of 9 parts protein: 1 part excipient solution or buffer (for the control), and aliquots were added to the wells of a 384 well microplate (Aurora Microplates, Whitefish, MT). […] After the microplate was shaken, 2 microliters of a 5-fold dilution of polyethylene glycol surface-modified gold nanoparticles having a diameter of 100 nm (nanoComposix, San Diego, CA) in 20 mM His HCl were added to each sample well. […] In this example, the ratio of apparent radius to the actual radius of the gold nanoparticle was multiplied by the viscosity of water at 25° C. to calculate the viscosity of the protein formulation in centipoise (cP).

Data set [5] deals with ustekinumab. Nature of the data set: Stabilization at low pH, Sypro orange fluorescence (Example 45). To be noted: excipient 5 mg/mL, ustekinumab 1 mg/mL, glycine acidification buffer pH 2.6, Sypro orange fluorescence.
Data set [6] can be described thus: Caffeine solubility with co-solutes during refrigerated storage (Example 61). Further details: key: (PPT)—precipitate observed; (—)—clear solution observed. In kind it is physicochemical. To be noted: 50 mM co-solute, 25 mM histidine pH 6, stored 2 to 5° C. Here is the method:
The resulting microplates were then sealed with microplate tape and stored in a refrigerator with the temperature maintained in the range of 2 to 5° C. Over the course of storage, the microplates were visually observed for evidence of precipitate in the well.

For data set [7], the system named is ustekinumab. Nature of the data set: Urea denaturation, Sypro orange fluorescence (Example 44). Particulars: excipient 5 mg/mL, ustekinumab 1 mg/mL, 6M urea, 20 mM histidine pH 6.0, Sypro orange fluorescence. The class given is physicochemical. From the text:
It is known that urea denatures proteins in solution and causes them to unfold. The screening methodology in this example involved adding a specific concentration of urea to a therapeutic protein solution such as ustekinumab. […] One method to track protein unfolding involves the use of extrinsic fluorescent dyes such as Sypro orange. Sypro orange binds to hydrophobic regions in the unfolded protein structure, leading to an increase in the fluorescence signal observed. Measuring the differences in the fluorescence intensity of unfolded protein-Sypro orange complex in presence of different excipients thus allows one to identify any stabilizing effects.
All excipients used in this Example, listed in Table 45 below, were of the highest purity, and were obtained from Sigma Aldrich (St. Louis, MO) or Cayman Chemical (Ann Arbor, MI). […] This urea stock solution was then added to a final concentration of 6M to produce the test solutions (excipient plus protein plus urea). […] The pH of the mixture was rechecked and confirmed to be at pH 6.0. The test solutions were allowed to incubate at room temperature for 30 min.

[8] abbreviates: Excipient A caffeine 15 mg/mL + Excipient B 20 mg/mL.
The mark [9] stands for this setting: Excipient A caffeine 15 mg/mL + Excipient B 15 mg/mL.

Turning to `N[C@@H](CC(=O)O)C(=O)O` [Aspartic acid], the “Normalized Viscosity” value in data set [1] (setting [8]) was 0.73.

For the compound `O.O.[Ca+2].[Cl-].[Cl-]` [CaCl2 dihydrate], the “Normalized Viscosity” value in data set [1] (setting [9]) was found to be 0.65.

Regarding `O=C(O)CN(CCN(CC(=O)O)CC(=O)O)CCN(CC(=O)O)CC(=O)O` [DTPA], the “% reduction in light scattering at 350 nm vs. control” value (shortened to “% reduction in light scattering”) in data set [2] turned out to be 17.2%.

For `CS(C)(=O)=O` [Dimethyl sulfone, dimethyl sulfone], the “Normalized Viscosity” value in data set [1] (Excipient A caffeine 15 mg/mL + Excipient B 25 mg/mL) was found to be 0.65.

Take `CCO` [Ethanol]: the “Normalized Viscosity” value in data set [1] (Excipient A caffeine 15 mg/mL + Excipient B 22 mg/mL) is 0.65.

On to `CCCCn1ccnc1` [Excipient 1-butylimidazole, 1-butylimidazole], for which the “DLS Viscosity, Replicate 1” value turned out to be 16.8 cP in data set [3] and 40.5 cP in data set [4]. Moreover, the “DLS Viscosity, Replicate 2” value was 15.6 cP in data set [3] and 74.0 cP in data set [4].

On to `CCCCCCn1ccnc1` [Excipient 1-hexylimidazole, 1-hexylimidazole], for which the results for the “DLS Viscosity, Replicate 1” value in data set [3] and in data set [4] were 13.6 cP and 27.0 cP, respectively. In addition, the figures for the “DLS Viscosity, Replicate 2” value in data set [3] and in data set [4] were 14.0 cP and 33.1 cP, respectively.

`OC[C@H](O)[C@@H](O)[C@H](O)[C@@H](O)CO` [Iditol]: the “% reduction in light scattering” value in data set [2] is on record as 11.7%. Moreover, the “% change in stability” value in data set [5] turned out to be 11.6%.

As for `NC(=O)c1ccncc1` [Isonicotinamide], in data set [2], the “% reduction in light scattering” value is reported as 4.8%. The “% change in stability” value in data set [5] worked out at 65.4%.

Regarding `CC(C)C[C@H](N)C(=O)O` [Leucine], the “Normalized Viscosity” value in data set [1] (setting [8]) amounted to 0.69.

Regarding `OC[C@@H](O)[C@@H](O)[C@H](O)[C@H](O)CO` [Mannitol], the “% reduction in light scattering” value in data set [2] is recorded as 17.8%.

As to `CNC[C@H](O)[C@@H](O)[C@H](O)[C@H](O)CO` [Meglumine], in data set [2], the “% reduction in light scattering” value was 15.3%. Besides, the “% change in stability” value in data set [5] was 41.8%.

Turning to `OC[C@H]1O[C@@](CO)(O[C@H]2O[C@H](CO)[C@@H](O)[C@H](O)[C@H]2O)[C@@H](O[C@H]2O[C@H](CO)[C@@H](O)[C@H](O)[C@H]2O)[C@@H]1O` [Melezitose], the “% reduction in light scattering” value in data set [2] is recorded as 7.4%.

Turning to `NC(=O)c1cccnc1` [Niacinamide], the “Normalized Viscosity” value in data set [1] (setting [9]) is on record as 0.63.

Turning to `N[C@@H](Cc1ccccc1)C(=O)O` [Phenylalanine], the “Normalized Viscosity” value in data set [1] (setting [8]) came to 0.60. Moreover, in data set [6] (caffeine 7.5 mg/mL), the “Day 1 (visual observation for precipitate)” value is recorded as “—”, the “Day 7 (visual observation for precipitate)” value is “—”, the “Day 18 (visual observation for precipitate)” value is reported as “—” and the “Day 27 (visual observation for precipitate)” value is reported as “—”. For the same compound, the “Day 56 (visual observation for precipitate)” value in data set [6] (caffeine 7.5 mg/mL) is recorded as “—”. Besides, in data set [6] (caffeine 10 mg/mL), the “Day 1 (visual observation for precipitate)” value is “—”, the “Day 7 (visual observation for precipitate)” value is given as “—”, the “Day 18 (visual observation for precipitate)” value is “—” and the “Day 27 (visual observation for precipitate)” value is “—”. For the same compound, the “Day 56 (visual observation for precipitate)” value in data set [6] (caffeine 10 mg/mL) was “—”. Moreover, in data set [6] (caffeine 12.5 mg/mL), the “Day 1 (visual observation for precipitate)” value was “—”, the “Day 7 (visual observation for precipitate)” value is reported as “—”, the “Day 18 (visual observation for precipitate)” value is recorded as “—” and the “Day 27 (visual observation for precipitate)” value was “—”. The “Day 56 (visual observation for precipitate)” value in data set [6] (caffeine 12.5 mg/mL) is recorded as “—”. Moreover, in data set [6] (caffeine 15 mg/mL), the “Day 1 (visual observation for precipitate)” value is listed as “—”, the “Day 7 (visual observation for precipitate)” value was “—”, the “Day 18 (visual observation for precipitate)” value is given as “—” and the “Day 27 (visual observation for precipitate)” value is recorded as “—”. Further, the “Day 56 (visual observation for precipitate)” value in data set [6] (caffeine 15 mg/mL) is “PPT”. Further, in data set [6] (caffeine 20 mg/mL), the “Day 1 (visual observation for precipitate)” value was “—”, the “Day 7 (visual observation for precipitate)” value is given as “PPT”, the “Day 18 (visual observation for precipitate)” value is given as “PPT” and the “Day 27 (visual observation for precipitate)” value is given as “PPT”. Also, the “Day 56 (visual observation for precipitate)” value in data set [6] (caffeine 20 mg/mL) is reported as “PPT”.

For `O=C(CO)[C@H](O)[C@H](O)[C@H](O)CO` [Psicose], the “% reduction in light scattering” value in data set [2] was found to be 15.3%. The “% change in stability” value in data set [5] is given as 1.1%.

For the compound `OC[C@H]1O[C@H](OC[C@H]2O[C@H](O[C@]3(CO)O[C@H](CO)[C@@H](O)[C@@H]3O)[C@H](O)[C@@H](O)[C@@H]2O)[C@H](O)[C@@H](O)[C@H]1O` [Raffinose], the “% increased stability” value in data set [7] amounted to 1.7%. For the same compound, the “% reduction in light scattering” value in data set [2] was 3.7%. Also, in data set [5], the “% change in stability” value stood at 2.6%.

For `CC(=O)[O-].[Na+]` [Sodium acetate], in data set [1] (Excipient A caffeine 15 mg/mL + Excipient B 12 mg/mL), the “Normalized Viscosity” value stood at 0.77.

As to `OC[C@@H](O)[C@H](O)[C@@H](O)CO` [Xylitol], the “% increased stability” value in data set [7] worked out at 6.3%. Besides, the “% reduction in light scattering” value in data set [2] is 10.7%. Moreover, the “% change in stability” value in data set [5] stood at 0.4%.

Take `O=C(CO)[C@@H](O)[C@H](O)[C@H](O)[C@H](O)CO` [seduheptalose]: in data set [2], the “% reduction in light scattering” value worked out at 16.0%.

(Values after patent US20250186600A1, “EXCIPIENT COMPOUNDS FOR PROTEIN FORMULATIONS” (Comera Life Sciences, Inc., priority 2020, published 2025).)
